Measurements from PMC4440778, “Structure-Activity Relationship and Mode of Action of a Frog Secreted Antibacterial Peptide B1CTcu5 Using Synthetically and Modularly Modified or Deleted (SMMD) Peptides” (PLoS ONE, 2015).
≈ marks a conversion by molar mass, not a printed value. Where a SMILES comes first, the peptide text is derived from it. Bridges are numbered along the chain shown (N, C = ends). Where no end group is shown, it is not given here. [ ]: non-standard residue; d: D form. The star is where a group is joined. Acm = CC(=O)NC*

Experiments:
PBMCs = type: cell-based, human
Description: Peripheral blood mononuclear cells (PBMCs) were isolated from heparanised blood of healthy individuals. Five milliliter of blood was diluted with PBS (pH 7.4), and layered above 5 ml of histopaque and centrifuged at 1200 rpm for 30 min at room temperature. The upper layer was discarded, and the interphase containing PBMCs were carefully withdrawn and washed with PBS. It was centrifuged at 1500 rpm at room temperature for 10 min, the pellets were resuspended in RPMI medium and the cells were counted.
(§1) Cytotoxicity of the peptides against human embryonic kidney (HEK) cells, skin cancer cells (A431) and PBMCs were evaluated by 3-[4, 5-dimethylthiazol-2-yl]-2, 5-diphenyl tetrazolium bromide (MTT) assay. Peptide solution prepared in less than 0.2% DMSO (10–100 μg/ml) was treated with initially seeded 10,000 cells per well for HEK and A431 cells. To assess peptide cytotoxicity in PBMCs, MTT assay was performed by adding different concentrations of the respective peptides to 96 well plate containing 40,000 PBMCs per well, in triplicate. The conversion of MTT into […] was determined by measuring the absorbance at 570 nm.

skin cancer cells (A431) = type: cell-based, human
Description: as §1

[1] = tested on: human embryonic kidney (HEK) cells; type: cell-based
Description: as §1

B. coagulans ATCC 7050 = conditions: ATCC 7050, 24 h
Description: (§2) Bacterial cultures were grown in Luria Bertani broth (Hi-media) by overnight incubation at 37°C with constant shaking. Microbial cultures having 10^6 CFU/ml were made from OD 0.6 culture. Respective peptide stock concentration (1mg/ml) were prepared in sterile water and diluted in LB broth to make concentrations ranging from 1–200 μg/ml. Bacterial culture (50 μl) was treated with 50 μl of individual peptide amide solution of various concentrations and incubated for 24 h at 37°C with constant shaking in a 96 well microtitre plate. […] The minimum inhibitory concentration (MIC) was taken as the dose at which 100% of growth inhibition was observed and was calculated from the graph. MIC was calculated from independent experiments performed in triplicate.

B. subtilis MTCC 14416 = conditions: MTCC 14416, 24 h
Description: as §2

S. aureus ATCC 9542 = conditions: ATCC 9542, 24 h
Description: as §2

E. coli MG 1655 = conditions: MG 1655, 24 h
Description: as §2

P. aeruginosa ATCC 27853 = conditions: ATCC 27853, 24 h
Description: as §2

[2] = tested on: V. cholerae (clinical isolates); conditions: 24 h
Description: as §2

Row | Compound | CC 50 (PBMCs) [µg/mL] | CC 50 (skin cancer cells (A431)) [µg/mL] | CC 50 [1] [µg/mL] | MIC (B. coagulans ATCC 7050) [µg/mL] | MIC (B. subtilis MTCC 14416) [µg/mL] | MIC (S. aureus ATCC 9542) [µg/mL] | MIC (E. coli MG 1655) [µg/mL] | MIC (P. aeruginosa ATCC 27853) [µg/mL] | MIC [2] [µg/mL]
1 | CC[C@@H](C)[C@@H](NC(=O)[C@H](N)CC(C)C)C(=O)N[C@H](C)C(=O)NCC(=O)N[C@H](CC(C)C)C(=O)N[C@H](C)C(=O)N[C@H](C)C(=O)N[C@H](CC(N)=O)C(=O)N[C@H](Cc1ccccc1)C(=O)N[C@H](CC(C)C)C(=O)N1CCC[C@@H]1C(=O)N[C@H](CCC(N)=O)C(=O)N[C@@H](C(=O)N[C@H](CC(C)C)C(=O)N[C@@H]1CSSC[C@H](C(N)=O)NC(=O)[C@@H](CCCCN)NC(=O)[C@@H](CCCNC(=N)N)NC(=O)[C@@H](C)NC(=O)[C@@H]([C@H](C)CC)NC(=O)[C@@H](CCCCN)NC1=O)[C@H](C)CC [DB1CTcu5] (H-[dL][dI][dA]G[dL][dA][dA][dN][dF][dL][dP][dQ][dI][dL][dC][dK][dI][dA][dR][dK][dC]-NH2; disulfide 15-21) | 71.4 ± 2.3 (≈ 31.7 µM) | >100 | >100 | 15 (≈ 6.66 µM) | 50 (≈ 22.2 µM) | 50 (≈ 22.2 µM) | 25 (≈ 11.1 µM) | >100 | 
2 | CC[C@H](C)[C@@H]1NC(=O)[C@H](CCCCN)NC(=O)[C@@H](NC(=O)[C@H](CC(C)C)NC(=O)[C@@H](NC(=O)[C@H](CCC(N)=O)NC(=O)[C@@H]2CCCN2C(=O)[C@H](CC(C)C)NC(=O)[C@H](Cc2ccccc2)NC(=O)[C@H](CC(N)=O)NC(=O)[C@H](C)NC(=O)[C@H](C)NC(=O)[C@H](CC(C)C)NC(=O)CNC(=O)[C@H](C)N)[C@@H](C)CC)CSSC[C@@H](C(N)=O)NC(=O)[C@H](CCCCN)NC(=O)[C@H](CCCNC(=N)N)NC(=O)[C@H](C)NC1=O [B1CTcu5-LI] (H-AGLAANFLPQILCKIARKC-NH2; disulfide 13-19) |  |  |  | 80 (≈ 39.5 µM) |  | 50 (≈ 24.7 µM) | 50 (≈ 24.7 µM) | >100 | 25 (≈ 12.3 µM)
3 | CC[C@H](C)[C@@H]1NC(=O)[C@H](CCCCN)NC(=O)[C@@H](NC(=O)[C@H](CC(C)C)NC(=O)[C@@H](NC(=O)[C@H](CCC(N)=O)NC(=O)[C@@H]2CCCN2C(=O)[C@H](CC(C)C)NC(=O)[C@H](Cc2ccccc2)NC(=O)[C@H](CC(N)=O)NC(=O)[C@H](C)NC(=O)[C@H](C)NC(=O)[C@H](CC(C)C)NC(=O)CNC(=O)[C@H](C)NC(=O)[C@@H](NC(=O)[C@@H](N)CCCNC(=N)N)[C@@H](C)CC)[C@@H](C)CC)CSSC[C@@H](C(N)=O)NC(=O)[C@H](CCCCN)NC(=O)[C@H](CCCNC(=N)N)NC(=O)[C@H](C)NC1=O [B1CTcu5R] (H-RIAGLAANFLPQILCKIARKC-NH2; disulfide 15-21) | 96.1 ± 1.22 (≈ 41.8 µM) | >100 | >100 | 12.5 (≈ 5.44 µM) | 50 (≈ 21.8 µM) | 25 (≈ 10.9 µM) | 25 (≈ 10.9 µM) | >100 | 12.5 (≈ 5.44 µM)
4 | CC[C@H](C)[C@H](NC(=O)[C@H](CCCCN)NC(=O)[C@H](CSCNC(C)=O)NC(=O)[C@H](CC(C)C)NC(=O)[C@@H](NC(=O)[C@H](CCC(N)=O)NC(=O)[C@@H]1CCCN1C(=O)[C@H](CC(C)C)NC(=O)[C@H](Cc1ccccc1)NC(=O)[C@H](CC(N)=O)NC(=O)[C@H](C)NC(=O)[C@H](C)NC(=O)[C@H](CC(C)C)NC(=O)CNC(=O)[C@H](C)NC(=O)[C@@H](NC(=O)[C@@H](N)CC(C)C)[C@@H](C)CC)[C@@H](C)CC)C(=O)N[C@@H](C)C(=O)N[C@@H](CCCNC(=N)N)C(=O)N[C@@H](CCCCN)C(=O)N[C@@H](CS)C(N)=O [B1CTcu5C (Acm)] (H-LIAGLAANFLPQILC(Acm)KIARKC-NH2) |  |  |  | 25 (≈ 10.7 µM) | 50 (≈ 21.5 µM) | 50 (≈ 21.5 µM) | 12.5 (≈ 5.37 µM) | >100 | 50 (≈ 21.5 µM)
5 | CC[C@H](C)[C@H](NC(=O)[C@H](CCCCN)NC(=O)[C@H](CS)NC(=O)[C@H](CC(C)C)NC(=O)[C@@H](NC(=O)[C@H](CCC(N)=O)NC(=O)[C@@H]1CCCN1C(=O)[C@H](CC(C)C)NC(=O)[C@H](Cc1ccccc1)NC(=O)[C@H](CC(N)=O)NC(=O)[C@H](C)NC(=O)[C@H](C)NC(=O)[C@H](CC(C)C)NC(=O)CNC(=O)[C@H](C)NC(=O)[C@@H](NC(=O)[C@@H](N)CC(C)C)[C@@H](C)CC)[C@@H](C)CC)C(=O)N[C@@H](C)C(=O)N[C@@H](CCCNC(=N)N)C(=O)N[C@@H](CCCCN)C(=O)N[C@@H](CS)C(N)=O [Linear B1CTcu5] (H-LIAGLAANFLPQILCKIARKC-NH2) |  |  |  | 12.5 (≈ 5.54 µM) | 50 (≈ 22.2 µM) | >100 | 25 (≈ 11.1 µM) | >100 | 25 (≈ 11.1 µM)
6 | CC[C@H](C)[C@@H]1NC(=O)[C@H](CCCCN)NC(=O)[C@@H](NC(=O)[C@H](CC(C)C)NC(=O)[C@@H](NC(=O)[C@H](CCC(N)=O)NC(=O)[C@@H]2CCCN2C(=O)[C@H](CC(C)C)NC(=O)[C@H](Cc2ccccc2)NC(=O)[C@H](CC(N)=O)NC(=O)[C@H](C)NC(=O)[C@H](C)NC(=O)[C@H](CC(C)C)NC(=O)CNC(=O)[C@H](C)NC(=O)[C@@H](NC(=O)[C@@H](N)CC(C)C)[C@@H](C)CC)[C@@H](C)CC)CSSC[C@@H](C(N)=O)NC(=O)[C@H](CCCCN)NC(=O)[C@H](CCCNC(=N)N)NC(=O)[C@H](C)NC1=O [Cyclic B1CTcu5] (H-LIAGLAANFLPQILCKIARKC-NH2; disulfide 15-21) | 75.1 ± 1.46 (≈ 33.3 µM) | >100 | >100 | 15 (≈ 6.66 µM) | 50 (≈ 22.2 µM) | >100 | 25 (≈ 11.1 µM) | >100 | 25 (≈ 11.1 µM)
7 | CC[C@H](C)[C@H](N)C(=O)N[C@@H](C)C(=O)NCC(=O)N[C@@H](CC(C)C)C(=O)N[C@@H](C)C(=O)N[C@@H](C)C(=O)N[C@@H](CC(N)=O)C(=O)N[C@@H](Cc1ccccc1)C(=O)N[C@@H](CC(C)C)C(=O)N1CCC[C@H]1C(=O)N[C@@H](CCC(N)=O)C(=O)N[C@H](C(=O)N[C@@H](CC(C)C)C(=O)N[C@H]1CSSC[C@@H](C(N)=O)NC(=O)[C@H](CCCCN)NC(=O)[C@H](CCCNC(=N)N)NC(=O)[C@H](C)NC(=O)[C@H]([C@@H](C)CC)NC(=O)[C@H](CCCCN)NC1=O)[C@@H](C)CC [B1CTcu5-L] (H-IAGLAANFLPQILCKIARKC-NH2; disulfide 14-20) |  |  |  | 100 (≈ 46.7 µM) | 100 (≈ 46.7 µM) | 25 (≈ 11.7 µM) | 50 (≈ 23.4 µM) | >100 | 25 (≈ 11.7 µM)
8 | CC[C@H](C)[C@@H]1NC(=O)[C@H](CCCCN)NC(=O)[C@@H](NC(=O)[C@H](CC(C)C)NC(=O)[C@@H](NC(=O)[C@H](CCC(N)=O)NC(=O)[C@@H]2CCCN2C(=O)[C@H](CC(C)C)NC(=O)[C@H](Cc2ccccc2)NC(=O)[C@H](CC(N)=O)NC(=O)[C@H](C)NC(=O)[C@H](C)NC(=O)[C@H](CC(C)C)NC(=O)CN)[C@@H](C)CC)CSSC[C@@H](C(N)=O)NC(=O)[C@H](CCCCN)NC(=O)[C@H](CCCNC(=N)N)NC(=O)[C@H](C)NC1=O [B1CTcu5-LIA] (H-GLAANFLPQILCKIARKC-NH2; disulfide 12-18) |  |  |  | 100 (≈ 51.1 µM) | 100 (≈ 51.1 µM) | 50 (≈ 25.6 µM) | 100 (≈ 51.1 µM) | >100 | 50 (≈ 25.6 µM)
9 | LIAGLAANFLPQILCKIARK-NH2 [B1CTcu5-C] |  |  |  | 25 | 50 | 50 | 25 | >100 | 50
